Data published in patent publication US20150283110A1, “COMPOSITION FOR PREVENTING OR TREATING HEART DISEASE” (AMOREPACIFIC CORPORATION, priority 2012, published 2015).

How the values were obtained:
SIRT1 gene [1] = assay: SIRT1 gene expression promoting effect in cardiomyocytes (RT-PCR); type: cell-based; parameters: change of the expression of the SIRT1 gene: dose or concentration left out as unconfirmed; settings: rat cardiomyocytes, FIG. 1; for change of the expression of the SIRT1 gene: serum-free, 24 hours, DMSO control
Protocol: The SIRT1 gene expression promoting effect of the two optical isomers of syringaresinol in rat cardiomyocytes was evaluated as follows.
The heart of a 1-2 day old Sprague-Dawley rat was excised, immersed in an HBSS solution, cut into pieces with scissors and kept overnight in a trypsin/EDTA solution inside a shaker at 4° C. The next day, the trypsin solution was discarded and a 10% FCS/DMEM solution was added to inhibit trypsin activity. After discarding the FCS/DMEM, adding a collagenase solution and keeping in a shaking bath at 37° C. for about 3 minutes, only the supernatant was collected in a conical tube. This procedure was repeated three times. After centrifuging the collected solution at 750 rpm for 5 minutes, the resulting pellets were resuspended in a 10% FCS/DMEM solution, transferred to a culture flask and then incubated at 37° C. for 75 minutes. The suspension was transferred to a fresh culture flask, incubated again for 75 minutes, transferred to a conical tube and then plated after cell counting. The plated cells were cultured in a 10% FCS/DMEM medium for 3-4 days until confluence and the medium was treated respectively with the (+)-syringaresinol (50 mM) obtained in Example and with the (−)-syringaresinol (50 mM) obtained in Comparative Example for 24 hours after removing the serum. The control group was treated with DMSO. The treated cells were washed 2 times with cold PBS and RNA was extracted therefrom using the TRIzol reagent (Invitrogen). cDNA was synthesized from the extracted and quantitated 1 μg/μL RNA using a reverse transcription system (Promega). The expression profile of the SIRT1 and GAPDH genes was measured using the synthesized cDNA and primers and probes predesigned for the genes (Applied Biosystems; SIRT1, Hs01009006_m1; GAPDH, Hs99999905_m1). PCR reaction and analysis were conducted using the Rotor-Gene 3000 system (Corbett Research, Sydney, Australia).

cardiomyocytes = assay: Cardiomyocyte protection from cell death induced by reactive oxygen species (H2O2, MTT); type: cell-based, rat; settings: 250 mM H2O2 2 hours, then 5, 20 or 50 mM for 24 hours; MTT OD 540 nm; FIGS. 2 and 3
Protocol: Cardiomyocytes isolated and cultured according to the substantially same method as described in Test Example 1 were treated with 250 mM hydrogen peroxide (H2O2) for 2 hours in a serum-free medium to induce cell death by reactive oxygen species. 2 hours later, after removing the medium and washing with PBS, the cells were treated with 5, 20 or 50 mM (+)-syringaresinol and (−)-syringaresinol for 24 hours. After adding a 3-[4,5-dimethylthiazolyl]-2,5-diphenyltetrazolium bromide (MTT, Sigma) solution to the cells and incubating at 37° C. for 4 hours, dimethyl sulfoxide was added and the optical density (OD) of the formed formazan dye was measured at a wavelength of 540 nm using an ELISA reader (Thermo Max, Molecular Devices Co.).

SIRT1 gene [2] = assay: SIRT1 expression in vascular endothelial cells during induced aging (RT-PCR); type: cell-based; settings: human vascular endothelial cells, 50 mM every other day, FIG. 8
Protocol: Human vascular endothelial cells purchased from Lonza (Walkersville, Md., USA) were cultured using the endothelial cell growth medium EGM-2 SingleQuots (Lonza) in a 5% CO2 incubator until 70% confluence. […] The population doubling level (PDL) was calculated according to the following equation for each generation until the cell growth was stopped. The PDL value is higher in aged cells.
14 PDL cells were treated with syringaresinol obtained from ginseng berry [syn(GB)], synthesized (+)-syringaresinol [syn(+)], 1:1 [syn(+/−1:1)], 2:1 [syn(+/−2:1)], 5:1 [syn(syn(+/−5:1))] or 10:1 [syn(syn(+/−10:1))] mixture of synthesized (+)-syringaresinol and synthesized (−)-syringaresinol or syringaresinol obtained from eleuthero [syn(eleuthero)] at a concentration of 50 mM every other day while inducing aging to 40 PDL cells. The cells of a negative control group were treated with DMSO of 1/1000 of the volume of the medium. The cells treated with each sample were washed 2 times with cold PBS and RNA was extracted using the TRIzol reagent (Invitrogen). cDNA was synthesized from the extracted RNA (1 μg/μL) using a reverse transcription system (Promega). Subsequently, the expression profile of the SIRT1 and GAPDH genes was measured using the synthesized cDNA and primers and probes predesigned for the genes (Applied Biosystems; SIRT1, Hs01009006_m1; GAPDH, Hs99999905_m1). […]

Row | Structure (SMILES) | change of the expression of the SIRT1 gene (SIRT1 gene [1]) | death of cardiomyocytes induced by reactive oxygen species (cardiomyocytes) | SIRT1 expression compared with cells treated with syringaresinol obtained from ginseng berry (SIRT1 gene [2]) | SIRT1 expression as compared to the cells treated only with DMSO (SIRT1 gene [2]; 14 PDL to 40 PDL) [times] | effect of increasing the SIRT1 expression compared with syringaresinol obtained from ginseng berry (SIRT1 gene [1])
1 | COc1cc(C2OCC3C(c4cc(OC)c(O)c(OC)c4)OCC23)cc(OC)c1O (single isomer, unassigned; (-)) [(−)-syringaresinol, reference compound] | cannot increase the expression of the SIRT1 gene | promoted cell death |  |  | 
2 | COc1cc([C@H]2OC[C@H]3[C@@H]2CO[C@@H]3c2cc(OC)c(O)c(OC)c2)cc(OC)c1O [(+)-syringaresinol, (8R,8′R)-(+)-syringaresinol] | increase the SIRT1 expression in cardiomyocyte in concentration-dependent manners | suppressed the death of the cardiomyocytes induced by the reactive oxygen species in a concentration-dependent manner | higher SIRT1 expression than the cells treated with the syringaresinol obtained from ginseng berry | ≥ 4 | better effect of increasing the SIRT1 expression than the syringaresinol obtained from ginseng berry
3 | COc1cc(C2OCC3C(c4cc(OC)c(O)c(OC)c4)OCC23)cc(OC)c1O (centres unmarked) [syringaresinol obtained from ginseng berry] | increase the SIRT1 expression in cardiomyocyte in concentration-dependent manners |  |  |  | 
